Legend:
[1] = tested on: miR-21-5p in HEK293T cells; experiment: RT-qPCR of mature miR-21-5p in HEK293T cells (dimer linker screening); type: cell-based; conditions: n=3, n=4 and 1
[2] = tested on: pre-miR-21 WT RNA; experiment: In vitro Dicer processing of pre-miR-21 WT; type: biochemical
From the text: In vitro Dicer processing. […] Cleavage products were resolved on a denaturing 15% polyacrylamide gel, which was imaged using a Molecular Dynamics Typhoon phosphorimager and quantified with Bio-Rad's QuantityOne software, normalizing to full length RNA.

[3] = tested on: pre-miR-21 WT; experiment: Microscale thermophoresis (MST) binding to pre-miR-21 WT
Description: Microscale Thermophoresis (MST) Binding Measurements. MST fluorescent measurements were performed on a Monolith NT.115 system (NanoTemper Technologies) using the fluorescence of a miR-21 hairpin (A+U Bulge): (5′ Cy5-[…]-3′) (SEQ ID NO: 1) or a miR-21 base paired control (5′ Cy5-[…]-3′) (SEQ ID NO: 2) which were purchased from IDT with RNase-free HPLC purification and used without further purification. The RNA (5 nM) was diluted in 1×MST Buffer (8 mM Na2HPO4, 190 mM NaCl, 1 mM EDTA, and 0.05% (v/v) Tween-20) and folded by heating at 60° C. for 5 min, and slowly cooling to room temperature. Compounds 1 and 2 were diluted in 1×MST Buffer, followed by 1:3 dilutions in 1×MST Buffer containing 5 nM RNA. […] Fluorescence measurements (Ex: 605-645 nm, Em: 680-685 nm) were performed at 10% LED and 80% MST power, with a Laser-On time of 30 s and Laser-Off time of 5 s. The data were analyzed by thermophoresis analysis and fitted by the quadratic binding equation in MST analysis software (NanoTemper Technologies). Dissociation constants were then determined by curve fitting using a single-site model. Normalized MST signal was calculated by normalizing the fluorescent signals using the MST data of 1 binding to pre-miR-21 WT with the lowest signal as 0 and the highest fluorescent signal as 1.

[4] = tested on: pre-miR-21; experiment: In vitro RNase L cleavage of pre-miR-21 (FRET sensor, gel mapping); type: biochemical
Description: In Vitro Fluorescent RNA Cleavage. A model RNA hairpin^15 labeled with a 5′ 6-Fluorescein (6FAM) and 3′ Black Hole Quencher (IQ4) (5′ 6FAM-[…]-3′ IQ4; 5′ FAM/3′ BHQ model RNA) (SEQ ID NO: 3) or a miR-21 Hairpin Precursor RNA labeled with a 5′ 6-Fluorescein (6FAM) and 3′ Black Hole Quencher (IQ4) (5′ 6FAM-[…] […]-3′ IQ4; 5′ FAM/3′ BHQ miR-21 Hairpin Precursor RNA) (SEQ ID NO: 4) was purchased from Chemgenes with HPLC purification. Solutions of RNA (100 nM) were folded at 65° C. for 5 min and slowly cooled to room temperature in 1×RNase L Buffer (25 mM Tris-HCl, pH 7.4, 100 mM KCl) without MgCl2, β-mercaptoethanol or ATP. After folding, the RNA was supplemented with 10 mM MgCl2, fresh 7 mM β-mercaptoethanol, and 50 μM of ATP. Next, 100 nM of RNase L, prepared as described previously^22, and various concentrations of screening compounds were prepared in 1×RNase L Buffer and added to the RNA. […] The samples were incubated at room temperature for 60 min after which the fluorescence intensity (Ex: 485 nm, Em: 525 nm) was measured using a SpectraMax M5 plate reader or Biotek FLx800 plate reader. The percentage change in fluorescence intensity, where enhancement of fluorescence intensity was indicative of RNA cleavage, was determined by calculating the percentage change in sample fluorescent signals relative to the untreated fluorescent signal (Fi, %). […]

[5] = DMPK: plasma levels in C57BL/6 mice; type: in vivo, mouse; conditions: i.p., 10 mg/kg
Description: DMPK Measurements: Male C57BL/6 mice (n=3, 5-7 weeks) were used for pharmacokinetics (PK) assessment. Mice were dosed i.p. (10 mg/kg) with 5 in a formulation of DMSO/Tween-80/H2O (10/10/80) and blood (25 μL) was drawn at 0.25, 0.5, 1, 2, 4, 6, 8, and 24 h time points. Detection of compound levels in blood plasma was determined using LC/MS-MS on a QTRAP 5500 LC-MS/MS System (AB Sciex).

| SMILES | inhibition of miR-21 levels, dose response of linker lengths [1] | inhibition of / protection from Dicer processing [2] | enhancement of pre-miR-21 binding over the compound of Formula 1 [3] | cleavage sites in labeled pre-miR-21 WT RNA (gel mapping) ([4]; 5 and RNase L treatment) | fluorescence cleavage of pre-miR-21 labeled FRET sensor ([4]; with RNase L) | concentrations maintained in mice (plasma) [5] |
| --- | --- | --- | --- | --- | --- | --- |
| CCCN(CC(=O)N(CCC)CC(=O)N(CCC)CC(=O)N(CC(N)=O)Cc1cn(CCCNC(=O)CCCOc2ccc(-c3nc4cc(-c5ccc(N6CCN(C)CC6)cc5)ccc4[nH]3)cc2)nn1)C(=O)CNCc1cn(CCCNC(=O)CCCOc2ccc(-c3nc4cc(-c5ccc(N6CCN(C)CC6)cc5)ccc4[nH]3)cc2)nn1 [Compound 2] | most significantly inhibited miR-21 levels | Protection with compound is observed at U23 (boxes marked with arrows) and U26 and U27 | 20 fold |  |  |  |
| CCCN(CC(=O)N(CCC)CC(=O)N(CCC)CC(=O)N(CC(=O)NCCOCCOCCOCCOc1ccc(C=C2SC(Nc3ccccc3)=C(C(=O)OCC)C2=O)cc1O)Cc1cn(CCCNC(=O)CCCOc2ccc(-c3nc4cc(-c5ccc(N6CCN(C)CC6)cc5)ccc4[nH]3)cc2)nn1)C(=O)CN(Cc1cn(CCCNC(=O)CCCOc2ccc(-c3nc4cc(-c5ccc(N6CCN(C)CC6)cc5)ccc4[nH]3)cc2)nn1)C(C)=O [Compound 5] |  |  |  | Cleavage was observed at U27, G25, C23, and G21 | dose responsive increase in cleavage | low nanomolar concentrations |

— US12617757B2, “Compounds and modules for inhibition of pre-miR-21 and their use in treatment of certain cancers” (University of Florida Research Foundation, Incorporated, priority 2019, dated 2026)
